Data on five compounds can be found in EP0101441B1, “ANTI-VIRAL COMPOSITIONS” (SYNTEX (U.S.A.) INC., priority 1982, dated 1983).

Data set [1] relates to HSV-1-PATTON. Nature of the data set: Viral plaque titration in human fetal fibroblasts (HFF). It counts as cell-based, Herpes simplex virus. The conditions noted are these: Example 1, drug µg/ml: G* 1.2, BVDU 0.11, ACG 2.0, PAA 250, same in combinations; for VT (virus titre): HFF cells, no-drug control VT 147; for FTR (fold titre reduction): ratio of control virus titre to that of the test. The method, then:
(§1) Human fetal fibroblasts (HFF) derived from fetal tissues were used in this study. Cells were grown and maintained in Basal Medium Eagle (BME) supplemented with 0.112% sodium bicarbonate, 2 mML- glutamine, 2 mg% Neomycin and 20% (vol/vol) calf serum.
(§2) A viral plaque titration method (Roizman and Roane, 1961) was used to determine the titer of the HSV strain. Tissue culture dishes (35 by 10 mm, Corning) were seeded with cells and used for assays when they were approximately 75% monolayer. Volumes (0.2 ml) of logarithmic dilutions of the virus strain were inoculated onto each of two tissue culture dishes and adsorbed for 1 hr with intermittent shaking, the inoculum was removed and 2 ml of 20% BME containing 0.5% human immune serum globulin was added. After a 48 h incubation period at 36°C in a 5% C02 atmosphere, the overlay m'edium was removed, and the cell sheets were stained with a 0.05% aqueous crystal violet solution. The plaque numbers were counted with the aid of a Nikon profile projector which magnified the dishes 10x. Duplicate results were averaged, and the number of plaque-forming units (PFU) was calculated. The virus titre is thus expressed as a number of plaque forming units to be seen after growth under these conditions.
(§3) In order to make comparisons between the activities of the various drugs and combinations, experiments were conducted by plaque titration to determine for each drug its viral ED-50 (i.e. the concentration thereof which inhibits HSV plaque formation by 50% in the HFF cells, as compared with cell cultures in the absence of the drug). For this purpose, tissue culture dishes (35 by 10 mm) with HFF cell monolayers at 75% confluence were inoculated with approximately 50 plaque-forming units of virus per 0.2 ml, and the virus was allowed to adsorb for 1 hr with intermittent shaking. After removal of the inoculum, 2 ml of 20% BME with 0.5% immune globulin and threefold dilutions of the appropriate drug were added to duplicate dishes. One set of dishes received no drug and was later used for the "no-drug control". After a 48 h incubation period at 36°C in a 5% C02 atmosphere, the overlay medium was removed, the cells were stained as described above, and plaques were counted. After averaging the counts of duplicate plates, the fraction of plaques emerging in the presence of each drug dilution was calculated as a percent of the control. Each drug titration was plotted on semilogarithmic graph paper, with the number of plaques per dish as the vertical axis and the drug concentration as the horizontal axis. The viral ED50 was calculated as that amount of drug per ml of overlay medium that inhibited plaque numbers by 50%, compared to a control (no drug), and this was read off the graphic plot of the data.
(§4) Three combinations of the drugs were then tested for activity by viral plaque titration, at concentrations which were multiples of the ED50 of the individual drugs. When G^*, BVDU or ACG was present, a concentration ten times that of its ED50 was used in the combination. This was intended to ensure a concentration sufficiently high to limit the numbers of partially drug-resistant virus plaques to a small fraction, in respect of each drug of the combination. In respect of PAA, a concentration of five times the ED50 was used, to avoid cell toxicity problems. The drugs were individually plaque-titrated at the same concentrations, for comparison purposes.
(§5) The results are given in the first Table headed "HSV-1-PATTON". The column headed "VT" gives the virus titre, expressed in plaque-forming units (PFU) per ml, x10^5; of course, the lower the figure, the greater the inhibitory, anti-viral effect of the tested drug (D). The column headed "FTR" gives the fold titre reduction which is the ratio of virus titre for the control, i.e. no drug, to that of the given test. […]

A further data set has as its system HSV-1-227. The data set is described as above. The settings on record: Example 3, drug µg/ml: G* 2.0, PAA 80, combination 2.0+80; for VT (virus titre): HFF cells, no-drug control VT 28; for FTR (fold titre reduction): ratio of control virus titre to that of the test. The class given is cell-based, Herpes simplex virus. The method, then:
as §1, §2, §3, §4, §5

The next data set has as its system HSV-2-EL4. The data set is described as above. The class given is cell-based, Herpes simplex virus. The settings on record: for VT (virus titre): HFF cells, no-drug control VT 750; for FTR (fold titre reduction): ratio of control virus titre to that of the test.
For the next data set, the system named is HSV-2-EL6. The description is as above. The settings on record: for VT (virus titre): HFF cells; for FTR (fold titre reduction): ratio of control virus titre to that of the test. It counts as cell-based, Herpes simplex virus.
The next data set deals with HSV-2-EL1. The data set is described as above. The class given is cell-based, Herpes simplex virus. The conditions noted are these: Example 3, drug µg/ml: G* 2.0, PAA 76, combination 2.0+76; for VT (virus titre): HFF cells, no-drug control VT 170; for FTR (fold titre reduction): ratio of control virus titre to that of the test.
For the next data set, the system named is HSV-2-EL3. The description is as above. It counts as cell-based, Herpes simplex virus. The conditions noted are these: Example 3, drug µg/ml: G* 2.0, PAA 82, combination 2.0+82; for VT (virus titre): HFF cells, no-drug control VT 77; for FTR (fold titre reduction): ratio of control virus titre to that of the test.
For another data set, the system named is HSV-1-EL11. The description is as above. The class given is cell-based, Herpes simplex virus. The conditions noted are these: Example 3, drug µg/ml: G* 0.4, PAA 25, combination 0.4+25; for VT (virus titre): HFF cells, no-drug control VT 8.0; for FTR (fold titre reduction): ratio of control virus titre to that of the test.
Data set [2] relates to HSV-1-PATTON. The data set is described as above. The class given is cell-based, Herpes simplex virus. The conditions noted are these: Example 2, drug µg/ml: G* 0.7, PFA 80, combination 0.7+80; for VT (virus titre): HFF cells, no-drug control VT 3400; for FTR (fold titre reduction): ratio of control virus titre to that of the test.
The conditions of data set [3]: cited from earlier work.
Setting [4] is: Example 2, drug µg/ml: G* 3.0, PFA 80, combination 3.0+80.
The mark [5] stands for this setting: Example 3, drug µg/ml: G* 2.0, PAA 90, combination 2.0+90.
The mark [6] stands for this setting: Example 2, no-drug control VT 150, drug µg/ml: G* 0.7, PFA 80, combination 0.7+80.
Setting [7] is: Example 2, drug µg/ml: G* 0.7, PFA 80, combination 0.7+80.
The mark [8] stands for this setting: Example 3, no-drug control VT 180, drug µg/ml: G* 0.6, PAA 90, combination 0.6+90.
The mark [9] stands for this setting: Example 3, drug µg/ml: G* 0.6, PAA 90, combination 0.6+90.

`Nc1nc2c(ncn2COCCO)c(=O)[nH]1` [ACG, 9 - [2 - hydroxyethoxymethyl]guanine]: in the data set with HSV-1-PATTON [1], the “VT (virus titre)” value is given as 4.7 PFU per ml, x10^5 and the “FTR (fold titre reduction)” value is listed as 31.

Consider `O=c1[nH]c(=O)n([C@H]2C[C@H](O)[C@@H](CO)O2)cc1/C=C/Br` [BVDU, bromovinyl-deoxyuridine], for which, in the data set with HSV-1-PATTON [1], the “VT (virus titre)” value is given as 2.1 PFU per ml, x10^5 and the “FTR (fold titre reduction)” value turned out to be 70.

Turning to `Nc1nc2c(ncn2COC(CO)CO)c(=O)[nH]1` [G*, 9 - [[2 - hydroxy - 1 - (hydroxymethyl)ethoxy]methyl]guanine], the “VT (virus titre)” value is 0.25 PFU per ml, x10^5 with HSV-1-227; 1.1 PFU per ml, x10^5 with HSV-1-PATTON [1]; 21 PFU per ml, x10^5 with HSV-2-EL4 (setting [4]); 5.9 PFU per ml, x10^5 in the data set with HSV-2-EL4 (setting [5]); 40 PFU per ml, x10^5 in the data set on HSV-2-EL6 (setting [6]); 0.90 PFU per ml, x10^5 in the data set on HSV-2-EL6 (setting [8]). Also, the “VT (virus titre)” value is recorded as 8.9 PFU per ml, x10^5 in the data set with HSV-2-EL1; 10 PFU per ml, x10^5 with HSV-2-EL3; 0.37 PFU per ml, x10^5 in the data set with HSV-1-EL11; 140 PFU per ml, x10^5 in the data set with HSV-1-PATTON [2]. Moreover, the “FTR (fold titre reduction)” value in the data set on HSV-1-227 stood at 110; in the data set on HSV-1-PATTON [1], 130; in the data set on HSV-2-EL4 (setting [4]), 36; in the data set on HSV-2-EL4 (setting [5]), 130; in the data set on HSV-2-EL6 (setting [7]), 3.8; with HSV-2-EL6 (setting [9]), 200. Further, the “FTR (fold titre reduction)” value is recorded as 19 with HSV-2-EL1, 7.7 with HSV-2-EL3, 22 in the data set on HSV-1-EL11 and 24 in the data set on HSV-1-PATTON [2].

Regarding `O=C(O)CP(=O)(O)O` [PAA, phosphonoacetic acid], the “VT (virus titre)” value in the data set on HSV-1-227 is on record as 1.1 PFU per ml, x10^5; in the data set with HSV-1-PATTON [1] it was 3.2 PFU per ml, x10^5; in the data set on HSV-2-EL4 (setting [5]), 0.10 PFU per ml, x10^5; with HSV-2-EL6 (setting [8]) it was 31.0 PFU per ml, x10^5; in the data set on HSV-2-EL1, 0.34 PFU per ml, x10^5; with HSV-2-EL3 it was 0.36 PFU per ml, x10^5. In addition, in the data set with HSV-1-EL11, the “VT (virus titre)” value is 2.8 PFU per ml, x10^5. Further, the “FTR (fold titre reduction)” value is on record as 26 in the data set on HSV-1-227; 50 in the data set on HSV-1-PATTON [1]; 7,500 in the data set with HSV-2-EL4 (setting [5]); 5.8 in the data set on HSV-2-EL6 (setting [9]); 500 in the data set with HSV-2-EL1; 210 in the data set with HSV-2-EL3. In addition, the “FTR (fold titre reduction)” value in the data set with HSV-1-EL11 is reported as 2.9. For the same compound, the “drug concentrations in topical formulation reported as skin irritant” value in [3] is over 100000 µM.

Consider `O=C(O)P(=O)(O)O` [PFA, phosphonoformic acid], for which the “VT (virus titre)” value with HSV-2-EL4 (setting [4]) is on record as 0.28 PFU per ml, x10^5; in the data set on HSV-2-EL6 (setting [6]) it was 48 PFU per ml, x10^5; in the data set with HSV-1-PATTON [2], 750 PFU per ml, x10^5. The “FTR (fold titre reduction)” value with HSV-2-EL4 (setting [4]) is recorded as 2,700; in the data set on HSV-2-EL6 (setting [7]) it was 3.1; in the data set with HSV-1-PATTON [2], 4.5. Moreover, in [3] (drug concentrations in excess of 100 mM), the “skin harm of topical formulation” value is “do not appear harmful”.
